Results reported in patent publication US10703748B2, “Diazanaphthalen-3-yl carboxamides and preparation and use thereof” (Samumed, LLC, priority 2017, dated 2020).

Legend:
[1] = tested on: Tau phosphorylation at Ser396 (pSer396); assay: Tau phosphorylation at Ser396 (pSer396) in SH-SY5Y cells, ELISA / western blot; type: cell-based, human; details: Homo sapiens; SH-SY5Y cells, overnight (16-18 h); read-out: pSer396 Tau EC50;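 also: decrease in pSer396 Tau measured in lysates of treated cells by colorimetric ELISA or chemiluminescent western blot, same pSer396 antibody for both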
Method: Two days before treatment, cells were seeded onto 96 well plates at 5×10^4 cells/well.
The above synthesized compounds were screened using the cell assay procedure to assess decrease Tau phosphorylation at Ser396 (pSer396) described below.
Cells were lysed with RIPA buffer complemented with phosphatase and protease inhibitors then lysates were spun down at 12,000 g for 10 min to remove any cellular debris.

[2] = target: GSK3β kinase (Homo sapiens, UniProt P49841); assay: GSK3β kinase activity (Ser/Thr 09 peptide Z-lyte FRET assay); type: biochemical; details: recombinant kinase, 46 μM ATP, one hour at room temperature; read-out: EC50
[3] = tested on: Wnt-responsive Sp5-Luc reporter in SW480 colon carcinoma cells; assay: Screening assay for Wnt activity (Sp5-Luc reporter gene assay); details: Homo sapiens; for EC50: SW480; for inhibition at 10 µM: SW480, read-out: percent inhibition at 10 μM
Method: The screening assay for Wnt activity is described as follows.
SW480 colon carcinoma cells were transduced with a lentiviral vector expressing luciferase with a human Sp5 promoter consisting of a sequence of eight TCF/LEF binding sites. […] These stably transduced SW480 cells were expanded in cell culture and used for all further screening activities. Each compound was dissolved in DMSO as a 10 mM stock and used to prepare compound source plates. Serial dilution (1:3, 10-point dose-response curves starting from 10 μM) and compound transfer was performed using the ECHO 550 (Labcyte, Sunnyvale, Calif.) into 384-well white solid bottom assay plates (Greiner Bio-One) with appropriate DMSO backfill for a final DMSO concentration of 0.1%. […] Following incubation, 15 μl of BriteLite Plus luminescence reagent (Perkin Elmer) was added to each well of the 384-well assay plates. The plates were placed on an orbital shaker for 2 min and then luminescence was quantified using the Envision (Perkin Elmer) plate reader.

[4] = tested on: IL-6; assay: IL-6 inhibition in LPS-stimulated human peripheral blood mononuclear cells (HTRF); details: Homo sapiens, PBMC; for EC50: 22 h; for inhibition at 10 µM: read-out: percentage in parentheses after EC50 >10
[5] = tested on: secreted cytokines TNFα, IL-6 and KC-GRO; assay: Secreted cytokines in Lipopolysaccharide-stimulated BV-2 cells (Table 9 does not say which cytokine); type: cell-based, mouse; details: Mus musculus, BV-2, 5 h; read-out: EC50
[6] = tested on: α-smooth muscle actin (aSMA) positive LL29 cells; assay: Inhibition of the fibrotic process: αSMA staining in TGF-β1 treated LL29 fibroblasts from IPF patients; details: Homo sapiens, Fibroblast; for EC50: 96 h; for inhibition at 10 µM: read-out: percentage in parentheses after EC50 >10
[7] = tested on: SW480 colon carcinoma cells; assay: Cell viability assay (CellTiter-Glo); details: Homo sapiens; for EC50: SW480, 96 h; for inhibition at 10 µM: SW480, read-out: percent inhibition at 10 μM
[8] = target: DYRK1A kinase (Homo sapiens, UniProt Q13627); assay: DYRK1A kinase activity (Ser/Thr 18 peptide Z-lyte FRET assay); type: biochemical; details: recombinant DYRK1A, 30 μM ATP, one hour at room temperature;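 also: kinase activity read as coumarin/fluorescein emission ratio after development step, with unphosphorylated and phosphorylated peptide forms setting 0% and 100% controls, values from dose-response curves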
Method: Representative compounds were screened using the assay procedure for DYRK1A kinase activity as described below.
Each compound was dissolved in DMSO as a 10 mM stock and used to prepare compound source plates.
This is a non-radioactive assay using fluorescence resonance energy transfer (FRET) between coumarin and fluorescein to detect kinase activity which is represented as a ratio of coumarin emission/fluorescein emission.
The mixture was allowed to incubate with the representative compounds for one hour at room temperature. All reactions were performed in duplicate. Unphosphorylated (“0% Control”) and phosphorylated (“100% control”) forms of Ser/Thr 18 served as control reactions. Additionally, an 11-point dose-response curve of Staurosporine (1 uM top) was run to serve as a positive compound control.
After incubation, Development Reagent A was diluted in Development Buffer then added to the reaction and allowed to further incubate for one hour at room temperature.
Dose-response curves were generated and inhibitory concentration (IC50) values were calculated using non-linear regression curve fit in the Dotmatics' Studies Software (Bishops Stortford, UK).

Sequence of GSK3β kinase (P49841 whole entry): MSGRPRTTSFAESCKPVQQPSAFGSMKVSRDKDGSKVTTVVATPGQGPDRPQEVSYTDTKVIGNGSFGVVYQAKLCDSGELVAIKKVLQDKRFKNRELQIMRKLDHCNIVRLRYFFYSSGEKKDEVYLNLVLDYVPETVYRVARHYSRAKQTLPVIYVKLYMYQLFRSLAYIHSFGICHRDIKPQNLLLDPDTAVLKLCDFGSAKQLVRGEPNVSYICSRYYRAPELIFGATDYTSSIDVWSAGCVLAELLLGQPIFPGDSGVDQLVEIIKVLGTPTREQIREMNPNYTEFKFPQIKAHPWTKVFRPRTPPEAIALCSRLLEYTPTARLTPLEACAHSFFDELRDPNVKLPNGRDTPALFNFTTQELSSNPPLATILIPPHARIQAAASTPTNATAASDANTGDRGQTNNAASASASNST

## Cc1ncc(C(=O)Nc2cc3nc(-c4cnc(C)n4C)ccc3cn2)s1 [Compound 447, N-(2-(1,2-Dimethyl-1H-imidazol-5-yl)-1,6-naphthyridin-7-yl)-2-methylthiazole-5-carboxamide]
[1]
  EC50: 562 nM
[2]
  EC50: 48 nM
[3]
  EC50: 107 nM
[4]
  EC50: 4250 nM
[5]
  EC50: 83 nM
[6]
  EC50: 517 nM
[7]
  EC50: 165 nM
[8]
  EC50: 1 nM

## Cn1cncc1-c1ccc2cnc(NC(=O)c3cccc(CN4CCCC4)c3)cc2n1 [Compound 450, N-(2-(1-Methyl-1H-imidazol-5-yl)-1,6-naphthyridin-7-yl)-3-(pyrrolidin-1-ylmethyl)benzamide]
[1]
  EC50: 3760 nM
[2]
  EC50: 350 nM
[3]
  EC50: 279 nM
[4]
  EC50: 3510 nM
[5]
  EC50: 3000 nM
[6]
  EC50: 517 nM
[7]
  EC50: 409 nM
[8]
  EC50: 1 nM

## Cn1cncc1-c1ccc2cnc(NC(=O)c3ccc4c(c3)CNC4)cc2n1 [Compound 477, N-(2-(1-Methyl-1H-imidazol-5-yl)-1,6-naphthyridin-7-yl)isoindoline-5-carboxamide]
[1]
  EC50: 10000 nM
[2]
  EC50: 84 nM
[3]
  EC50: 962 nM
[4]
  EC50: 9830 nM
[5]
  EC50: 4800 nM
[6]
  EC50: 632 nM
[7]
  EC50: 1690 nM
[8]
  EC50: 1 nM

## CC(C)Oc1ccc(C(=O)Nc2cc3nc(-c4cnc5n4CCNC5)ccc3cn2)cc1 [Compound 523, 4-Isopropoxy-N-(2-(5,6,7,8-tetrahydroimidazo[1,2-a]pyrazin-3-yl)-1,6-naphthyridin-7-yl)benzamide]
[1]
  EC50: 3940 nM
[2]
  EC50: 362 nM
[3]
  EC50: 530 nM
[4]
  EC50: > 10000 nM
  inhibition at 10 µM: 3.7%
[5]
  EC50: 799 nM
[6]
  EC50: 1630 nM
[7]
  EC50: 814 nM
[8]
  EC50: 4 nM

## Cc1ncc(-c2ccc3cnc(NC(=O)[C@H]4C[C@H](N5CCOCC5)C4)cc3n2)o1 [Compound 556, trans-N-(2-(2-Methyloxazol-5-yl)-1,6-naphthyridin-7-yl)-3-morpholinocyclobutane-1-carboxamide]
[1]
  EC50: 487 nM
[2]
  EC50: 86 nM
[3]
  EC50: > 10000 nM
  inhibition at 10 µM: 41.3%
[4]
  EC50: > 10000 nM
  inhibition at 10 µM: 4.9%
[5]
  EC50: 2200 nM
[6]
  EC50: > 10000 nM
  inhibition at 10 µM: 27.6%
[7]
  EC50: > 10000 nM
  inhibition at 10 µM: 29.4%
[8]
  EC50: 54 nM

## Cc1cn2c(n1)CN(C(=O)Nc1cc3nc(-c4cnc(C)o4)ccc3cn1)CC2 [Compound 585, 2-Methyl-N-(2-(2-methyloxazol-5-yl)-1,6-naphthyridin-7-yl)-5,6-dihydroimidazo[1,2-a]pyrazine-7(8H)-carboxamide]
[1]
  EC50: 374 nM
[2]
  EC50: 109 nM
[3]
  EC50: 2080 nM
[4]
  EC50: > 10000 nM
  inhibition at 10 µM: 9.4%
[5]
  EC50: 257 nM
[6]
  EC50: 2510 nM
[7]
  EC50: 2690 nM
[8]
  EC50: 9 nM

## O=C(Nc1cc2nc(-c3cncs3)ccc2cn1)[C@H]1CC[C@H](CN2CC(F)C2)CC1 [Compound 613, trans-4-((3-Fluoroazetidin-1-yl)methyl)-N-(2-(thiazol-5-yl)-1,6-naphthyridin-7-yl)cyclohexane-1-carboxamide]
[1]
  EC50: 157 nM
[2]
  EC50: 219 nM
[3]
  EC50: 8810 nM
[4]
  EC50: 1100 nM
[5]
  EC50: 106 nM
[6]
  EC50: 650 nM
[7]
  EC50: 3600 nM
[8]
  EC50: 3 nM

## Cc1ncc(-c2ccc3cnc(NC(=O)N4CCOCC4)cc3n2)s1 [Compound 634, N-(2-(2-Methylthiazol-5-yl)-1,6-naphthyridin-7-yl)morpholine-4-carboxamide]
[1]
  EC50: 7900 nM
[2]
  EC50: 1150 nM
[3]
  EC50: 8610 nM
[4]
  EC50: > 10000 nM
  inhibition at 10 µM: 13%
[5]
  EC50: 542 nM
[6]
  EC50: 2130 nM
[7]
  EC50: > 10000 nM
  inhibition at 10 µM: 41.2%
[8]
  EC50: 29 nM

## Cc1ncc(-c2ccc3cnc(NC(=O)C4CCN(C)CC4)cc3n2)s1 [Compound 640, 1-Methyl-N-(2-(2-methylthiazol-5-yl)-1,6-naphthyridin-7-yl)piperidine-4-carboxamide]
[1]
  EC50: 877 nM
[2]
  EC50: 401 nM
[3]
  EC50: > 10000 nM
  inhibition at 10 µM: 42.9%
[4]
  EC50: 7340 nM
[5]
  EC50: 504 nM
[6]
  EC50: 671 nM
[7]
  EC50: > 10000 nM
  inhibition at 10 µM: 40.4%
[8]
  EC50: 38 nM

## O=C(Nc1cc2nc(-c3cccnc3)ccc2cn1)C1CC1 [Compound 764, N-(2-(Pyridin-3-yl)-1,6-naphthyridin-7-yl)cyclopropanecarboxamide]
[1]
  EC50: 807 nM
[2]
  EC50: 243 nM
[3]
  EC50: > 10000 nM
  inhibition at 10 µM: 27.5%
[4]
  EC50: > 10000 nM
  inhibition at 10 µM: 4.3%
[5]
  EC50: 5100 nM
[6]
  EC50: > 10000 nM
  inhibition at 10 µM: 5.8%
[7]
  EC50: > 10000 nM
  inhibition at 10 µM: 24.7%
[8]
  EC50: 8 nM

## Cn1cc(-c2ccc3cnc(NC(=O)C4CC4)nc3c2)cn1 [Compound 909, N-(7-(1-Methyl-1H-pyrazol-4-yl)quinazolin-2-yl)cyclopropanecarboxamide]
[1]
  EC50: 372 nM
[2]
  EC50: 25 nM
[3]
  EC50: > 10000 nM
  inhibition at 10 µM: 56.1%
[4]
  EC50: 4860 nM
[5]
  EC50: 1900 nM
[6]
  EC50: 1380 nM
[7]
  EC50: > 10000 nM
  inhibition at 10 µM: 45.6%
[8]
  EC50: 13 nM

## Cn1cc(-c2ccc3cnc(NC(=O)C4CCNCC4)nc3c2)cn1 [Compound 918, N-(7-(1-methyl-1H-pyrazol-4-yl)quinazolin-2-yl)piperidine-4-carboxamide]
[1]
  EC50: > 10000 nM
[2]
  EC50: 236 nM
[3]
  EC50: > 10000 nM
  inhibition at 10 µM: 5%
[4]
  EC50: > 10000 nM
  inhibition at 10 µM: 14.6%
[5]
  EC50: > 10000 nM
[6]
  EC50: > 10000 nM
  inhibition at 10 µM: 31.2%
[7]
  EC50: > 10000 nM
  inhibition at 10 µM: 10.2%
[8]
  EC50: 62 nM

## CC(C)CN1CCC(C(=O)Nc2ncc3ccc(-c4cnn(C)c4)cc3n2)CC1 [Compound 923, 1-isobutyl-N-(7-(1-methyl-1H-pyrazol-4-yl)quinazolin-2-yl)piperidine-4-carboxamide]
[1]
  EC50: 1300 nM
[2]
  EC50: 204 nM
[3]
  EC50: > 10000 nM
  inhibition at 10 µM: 34.8%
[4]
  EC50: > 10000 nM
  inhibition at 10 µM: 10.5%
[5]
  EC50: 1070 nM
[6]
  EC50: 2720 nM
[7]
  EC50: > 10000 nM
  inhibition at 10 µM: 33.9%
[8]
  EC50: 44 nM

## CN(CC(=O)Nc1ncc2ccc(-c3cnn(C)c3)cc2n1)C1CCC1 [Compound 963, 2-(Cyclobutyl(methyl)amino)-N-(7-(1-methyl-1H-pyrazol-4-yl)quinazolin-2-yl)acetamide]
[1]
  EC50: 1620 nM
[2]
  EC50: 45 nM
[3]
  EC50: > 10000 nM
  inhibition at 10 µM: 11.8%
[4]
  EC50: > 10000 nM
  inhibition at 10 µM: 5.4%
[5]
  EC50: 354 nM
[6]
  EC50: 1570 nM
[7]
  EC50: > 10000 nM
  inhibition at 10 µM: 27.9%
[8]
  EC50: 45 nM

## Cn1cc(-c2ccc3cnc(NC(=O)CN4CCOCC4)nc3c2)cn1 [Compound 985, N-(7-(1-Methyl-1H-pyrazol-4-yl)quinazolin-2-yl)-2-morpholinoacetamide]
[1]
  EC50: 5400 nM
[2]
  EC50: 35 nM
[3]
  EC50: > 10000 nM
  inhibition at 10 µM: 5.5%
[4]
  EC50: > 10000 nM
  inhibition at 10 µM: 3.2%
[5]
  EC50: > 10000 nM
[6]
  EC50: > 10000 nM
  inhibition at 10 µM: 51.7%
[7]
  EC50: > 10000 nM
  inhibition at 10 µM: 9.6%
[8]
  EC50: 126 nM

## Cn1cc(-c2ccc3cnc(NC(=O)CC4CNCCO4)nc3c2)cn1 (centres unmarked) [Compound 994, N-(7-(1-Methyl-1H-pyrazol-4-yl)quinazolin-2-yl)-2-(morpholin-2-yl)acetamide]
[1]
  EC50: > 10000 nM
[2]
  EC50: 776 nM
[3]
  EC50: > 10000 nM
  inhibition at 10 µM: 11.5%
[4]
  EC50: 8310 nM
[5]
  EC50: 1300 nM
[6]
  EC50: > 10000 nM
  inhibition at 10 µM: 0%
[7]
  EC50: > 10000 nM
  inhibition at 10 µM: 24.8%
[8]
  EC50: 15 nM

## Cn1cc(-c2ccc3cnc(NC(=O)C4CCN(Cc5ncco5)CC4)nc3c2)cn1 [Compound 1003, N-(7-(1-Methyl-1H-pyrazol-4-yl)quinazolin-2-yl)-1-(oxazol-2-ylmethyl) piperidine-4-carboxamide]
[1]
  EC50: 4500 nM
[2]
  EC50: 262 nM
[3]
  EC50: > 10000 nM
  inhibition at 10 µM: 19.3%
[4]
  EC50: > 10000 nM
  inhibition at 10 µM: 6.6%
[5]
  EC50: 1490 nM
[6]
  EC50: > 10000 nM
  inhibition at 10 µM: 4.8%
[7]
  EC50: > 10000 nM
  inhibition at 10 µM: 18.5%
[8]
  EC50: 25 nM

## Cn1cc(-c2ccc3cnc(NC(=O)C4CCN(Cc5ncccn5)CC4)nc3c2)cn1 [Compound 1007, N-(7-(1-methyl-1H-pyrazol-4-yl)quinazolin-2-yl)-1-(pyrimidin-2-ylmethyl)piperidine-4-carboxamide]
[1]
  EC50: > 10000 nM
[2]
  EC50: 349 nM
[3]
  EC50: > 10000 nM
  inhibition at 10 µM: 14.6%
[4]
  EC50: > 10000 nM
  inhibition at 10 µM: 2.4%
[5]
  EC50: 1800 nM
[6]
  EC50: > 10000 nM
  inhibition at 10 µM: 39.7%
[7]
  EC50: > 10000 nM
  inhibition at 10 µM: 17.9%
[8]
  EC50: 106 nM
